Calls of active or inactive are those of the source. The calls are words filed in the database; no cut-off is given here.
Columns and labels:
[1] = Antioxidant activity assessed as suppression ratio of hydroxyl radical formation at 1.5 uM after 30 mins by absorbance analysis; assay type: functional
[2] = Antioxidant activity assessed as suppression ratio of hydroxyl radical formation at 2.5 uM after 30 mins by absorbance analysis; assay type: functional
[3] = Antioxidant activity assessed as suppression ratio of hydroxyl radical formation at 1 uM after 30 mins by absorbance analysis; assay type: functional
Calf thymus DNA [4] = experiment: Binding affinity to calf thymus DNA assessed as increase in compound emission intensity at 446 nm at 20 uM by luminescence spectrometer analysis; assay type: nucleic-acid assay; settings: Bos taurus
[5] = Antitumor activity against human MG63 cells assessed as growth inhibition after 48 hrs by MTT assay; assay type: functional, cell-based; settings: MG-63, 48 h
A549 [6] = experiment: Induction of cell cycle arrest in human A549 cells assessed as accumulation at G2/M phase of cell cycle at 25 uM after 24 hrs by propidium iodide staining based flow cytometry (reference value: 14.73%); assay type: functional
A549 [7] = experiment: Induction of apoptosis in human A549 cells assessed as viable cells at 50 uM after 24 hrs by flow cytometry (reference value: 92.28%); assay type: functional; settings: A549, 24 h, read-out: Activity
Calf thymus DNA [8] = experiment: Binding affinity to calf thymus DNA assessed as luminescence intensity at compound to DNA ratio of 4:1 by job plot analysis; assay type: nucleic-acid assay; settings: Bos taurus
A549 [9] = experiment: Induction of apoptosis in human A549 cells assessed as apoptotic cells at 25 uM after 24 hrs by flow cytometry (reference value: 0%); assay type: functional
[10] = Antioxidant activity assessed as suppression of hydroxyl radical formation after 30 mins by absorbance analysis; assay type: functional
A549 [11] = experiment: Induction of apoptosis in human A549 cells assessed as viable cells at 25 uM after 24 hrs by flow cytometry (reference value: 92.28%); assay type: functional; settings: A549, 24 h, read-out: Activity
Calf thymus DNA [12] = experiment: Binding affinity to calf thymus DNA assessed as hypochromicity at 233 nm at 40 uM after 5 mins by electronic absorption analysis; assay type: nucleic-acid assay; settings: Bos taurus
A549 [13] = experiment: Induction of cell cycle arrest in human A549 cells assessed as accumulation at S phase of cell cycle at 25 uM after 24 hrs by propidium iodide staining based flow cytometry (reference value: 9.8%); assay type: functional
[14] = Antioxidant activity assessed as suppression ratio of hydroxyl radical formation at 3.5 uM after 30 mins by absorbance analysis; assay type: functional
Bos taurus [15] = species on record: Bos taurus; experiment: Intrinsic binding affinity to calf thymus DNA at 233 nm after 5 mins by electronic absorption analysis
A549 [16] = experiment: Induction of apoptosis in human A549 cells assessed as necrotic cells at 25 uM after 24 hrs by flow cytometry (reference value: 0.04%); assay type: functional
Escherichia coli [17] = experiment: Induction of Escherichia coli supercoiled pBR322 DNA cleavage assessed as decrease in intact supercoiled form measured after UV irradiation by agarose gel electrophoresis analysis
Escherichia coli [18] = experiment: Induction of Escherichia coli supercoiled pBR322 DNA cleavage assessed as increase in open circular form measured after UV irradiation by agarose gel electrophoresis analysis
A549 [19] = experiment: Induction of apoptosis in human A549 cells after 24 hrs by flow cytometry; assay type: functional, cell-based
Calf thymus DNA [20] = experiment: Binding affinity to calf thymus DNA assessed as intercalation by measuring viscosity by viscometer analysis; assay type: nucleic-acid assay; settings: Bos taurus
[21] = Antitumor activity against human SKBR3 cells assessed as growth inhibition after 48 hrs by MTT assay; assay type: functional, cell-based; settings: SK-BR-3, 48 h
[22] = Antioxidant activity assessed as suppression ratio of hydroxyl radical formation at 3 uM after 30 mins by absorbance analysis; assay type: functional
[23] = Antioxidant activity assessed as suppression ratio of hydroxyl radical formation at 2 uM after 30 mins by absorbance analysis; assay type: functional
A549 [24] = experiment: Induction of cell cycle arrest in human A549 cells assessed as accumulation at G0/G1 phase of cell cycle at 25 uM after 24 hrs by propidium iodide staining based flow cytometry (reference value: 73.79%); assay type: functional
[25] = Antitumor activity against human Bel7402 cells assessed as growth inhibition after 48 hrs by MTT assay; assay type: functional, cell-based; settings: Bel-7402, 48 h
A549 [26] = experiment: Antitumor activity against human A549 cells assessed as growth inhibition after 48 hrs by MTT assay; assay type: functional, cell-based; settings: A549, 48 h
A549 [27] = experiment: Induction of apoptosis in human A549 cells assessed as apoptotic cells at 50 uM after 24 hrs by flow cytometry (reference value: 0%); assay type: functional
[28] = Antioxidant activity assessed as suppression ratio of hydroxyl radical formation at 0.5 uM after 30 mins by absorbance analysis; assay type: functional
A549 [29] = experiment: Induction of apoptosis in human A549 cells assessed as necrotic cells at 50 uM after 24 hrs by flow cytometry (reference value: 0.04%); assay type: functional
Calf thymus DNA [30] = experiment: Binding affinity to calf thymus DNA assessed as decrease in compound emission intensity at 705 nm at 20 uM by luminescence spectrometer analysis; assay type: nucleic-acid assay; settings: Bos taurus
Bos taurus [31] = species on record: Bos taurus; experiment: Intrinsic binding affinity to calf thymus DNA at 231 nm after 5 mins by electronic absorption analysis
Calf thymus DNA [32] = experiment: Binding affinity to calf thymus DNA assessed as hypochromicity at 231 nm at 40 uM after 5 mins by electronic absorption analysis; assay type: nucleic-acid assay; settings: Bos taurus
Calf thymus DNA [33] = experiment: Binding affinity to calf thymus DNA assessed as luminescence intensity at compound to DNA ratio of 1:1 by job plot analysis; assay type: nucleic-acid assay; settings: Bos taurus
Calf thymus DNA [34] = experiment: Binding affinity to calf thymus DNA assessed as decrease in compound emission intensity at 356 nm at 20 uM by luminescence spectrometer analysis; assay type: nucleic-acid assay; settings: Bos taurus
Calf thymus DNA [35] = experiment: Binding affinity to calf thymus DNA assessed as luminescence intensity at compound to DNA ratio of 1:2 by job plot analysis; assay type: nucleic-acid assay; settings: Bos taurus

`OCc1nc2cc(-c3c(O)ccc4cc(Br)ccc34)c3cc(Br)ccc3c2o1` showed an inhibition [1] of 28.3%, an inhibition [2] of 52.8% and an inhibition [3] of 23.5%. For the same compound, the Activity (Calf thymus DNA [4]) was 5.76%, the IC50 [5] was over 100 µM and the Activity (A549 [6]) was 15.5%. The viability at 50 µM (A549 [7]) was 80%, the Flu intensity (Calf thymus DNA [8]) was 0.8 a.u and the Activity (A549 [9]) was 3.57%. For the same compound, the inhibition [10] was “Dose-dependent effect”, the viability at 25 µM (A549 [11]) was 83.5% and the Activity (Calf thymus DNA [12]) was 34.6%. For the same compound, the Activity (A549 [13]) was 11.16%, the inhibition [14] was 86.7% and the Kb (Bos taurus [15]) was 4.44 ×10³ /M. For the same compound, the Activity (A549 [16]) was 2.87%, the Activity (Escherichia coli [17]) was “Active” and the Activity (Escherichia coli [18]) was “Active”. The Activity (A549 [19]) was “Dose-dependent effect”, the Activity (Calf thymus DNA [20]) was “Active” and the IC50 [21] was over 100 µM. For the same compound, the inhibition [22] was 80.9%, the inhibition [23] was 35.9% and the Activity (A549 [24]) was 71.9%. For the same compound, the IC50 [25] was 56.4 µM, the IC50 (A549 [26]) was 59.8 µM and the Activity (A549 [27]) was 4.09%. It also gave an inhibition [28] of 15.2% and an Activity (A549 [29]) of 3.18%.
In the case of `CC(=O)OCc1nc2cc(-c3c(OC(C)=O)ccc4ccccc34)c3ccccc3c2o1`, the inhibition (Calf thymus DNA [30]) is reported as 60.4%, the inhibition [1] is reported as 50.4% and the inhibition [2] is reported as 81.2%. For the same compound, the inhibition [3] was 32.5%, the Kb (Bos taurus [31]) was 2.64 ×10³ /M and the IC50 [5] was over 100 µM. For the same compound, the inhibition [10] was “Dose-dependent effect”, the inhibition [14] was 89% and the Activity (Calf thymus DNA [32]) was 29%. For the same compound, the Activity (Escherichia coli [17]) was “Active”, the Activity (Escherichia coli [18]) was “Active” and the Flu intensity (Calf thymus DNA [33]) was 0.54 a.u. The Activity (Calf thymus DNA [20]) was “Active”, the IC50 [21] was over 100 µM and the inhibition [22] was 86.4%. For the same compound, the inhibition [23] was 75.7%, the IC50 [25] was over 100 µM and the IC50 (A549 [26]) was over 100 µM. For the same compound, the inhibition [28] was 18.9%.
In the case of `OCc1nc2cc(-c3c(O)ccc4ccccc34)c3ccccc3c2o1`, the inhibition (Calf thymus DNA [34]) is reported as 79.6%, the inhibition [1] is reported as 12.3% and the inhibition [2] is reported as 26.9%. It also gave an inhibition [3] of 9.24%, a Kb (Bos taurus [31]) of 5.31 ×10³ /M and an IC50 [5] of over 100 µM. For the same compound, the inhibition [10] was “Dose-dependent effect”, the inhibition [14] was 88.2% and the Activity (Calf thymus DNA [32]) was 33.4%. For the same compound, the Activity (Escherichia coli [17]) was “Active”, the Activity (Escherichia coli [18]) was “Active” and the Activity (Calf thymus DNA [20]) was “Active”. It also gave an IC50 [21] of over 100 µM, an inhibition [22] of 87.9% and an inhibition [23] of 23.9%. It also gave an IC50 [25] of over 100 µM, an IC50 (A549 [26]) of over 100 µM and a Flu intensity (Calf thymus DNA [35]) of 0.32 a.u. For the same compound, the inhibition [28] was 4.04%.
